Read-outs that look alike come from different tables or passages of the source.
Columns and labels:
RAW 264.7 cells = assay: NO production (nitrite accumulation, Griess reaction) in LPS-stimulated macrophage-like cells; type: cell-based, mouse; conditions: for % of inhibition of NO2− accumulation at the highest concentration, RAW 264.7 cells: LPS, at the highest concentration (bound given in the source); for IC50 / suppression of LPS-induced NO production in RAW 264.7 cells (in words): LPS (1 μg/mL), 24 hrs; for IC50: read-out: IC50, accumulation of NO2− in culture media, RAW 264.7 cells
Experimental: RAW 264.7 mouse macrophage-like cell line (American Type Culture Collection (ATCC), PO Box 1549, Manassas, Va. 20108 USA) was plated in 96 well tissue-culture plates in Dulbecco's Modified Eagle Medium (DMEM) supplemented with 10% fetal calf serum (FCS), 100 units/ml of penicillin and streptomycin at 2×10^5 cells/200 μL per well. Cells were allowed to adhere overnight. The cells were treated with DMSO or a tested compound at 37° C. for 1 hr. followed by stimulation with 1 μg/mL of LPS (Escherichia coli, serotype 0111:B4) for 24 hrs. Thereafter, the medium in each well was collected and stored at −70° C. until use. The final volume of DMSO in the reaction mixture was≦0.5%.
(§1) The production of NO in cell medium was determined by measuring the content of nitrite based on the Griess reaction (L. Mingghetti et at (1997), Glia, 19, 152-160). Briefly, 40 μL of 5 mM sulfanilamide, 10 μL of 2 M HCl, and 20 μL of 40 mM naphthylethylenediamine were added into 150 μL culture medium in sequence. After 10 min of incubation at room temperature, absorbance was measured at 550 nm in a microplate reader. A standard nitrite curve was generated in the same fashion, using NaNO2.

rat neutrophils [1] = assay: Neutrophil degranulation stimulated with fMLP/CB (release of β-glucuronidase and lysozyme); type: cell-based; conditions: for IC50: Neutrophil, fMLP (1 μM)/CB (5 μg/mL); for IC50 / % of inhibition of Lysozyme release at the highest concentration / % of inhibition of β-Glucuronidase release at the highest concentration: rat neutrophils; for % of inhibition of Lysozyme release at the highest concentration / % of inhibition of β-Glucuronidase release at the highest concentration: at the highest concentration (bound given in the source)
Experimental: Blood was withdrawn from rat (Sprague-Dawley, 250-300 g, 10-12 weeks old) and mixed with EDTA. […] Cell suspension was preincubated at 37° C. with DMSO or drugs for 10 min, and then challenged with fMLP (1 μM)/CB (5 μg/mL). The final volume of DMSO in the reaction mixture was≦0.5%. […] After treatment of the cell suspension with Triton X-100, the total content of lysozyme and β-glucuronidase was measured and the percentage release was calculated. In the experiment, Trifluoperazine was used as a positive control.

[2] = system: rat peritoneal mast cells; assay: Mast cell degranulation stimulated with compound 48/80 (release of β-glucuronidase and histamine); type: cell-based; conditions: for IC50: Mast cell, compound 48/80 (10 μg/mL); for % of inhibition of Histamine release at the highest concentration / % of inhibition of β-Glucuronidase release at the highest concentration: compound 48/80, at the highest concentration (bound given in the source)
Experimental: Heparinized Tyrode's solution was injected into the peritoneal cavity of exsanguinated rat (Sprague-Dawley, 250-300 g, 10-12 weeks old). […] Cell pellets were washed and suspended in Tyrode's solution with 0.1% BSA to 1×10^6 cells/mL. Cell suspension was then preincubated at 37° C. with DMSO or a tested compound for 5 min. The final volume of DMSO in the reaction mixture was≦0.5%. […] After treatment of the cell suspension with Triton X-100, the total content of β-glucuronidase and histamine was measured, and the percentage release was calculated. In the experiment, Mepacrine was used as a positive control.

N9 cells = assay: NO production (nitrite accumulation, Griess reaction) in LPS/IFN-γ-stimulated microglial cells; type: cell-based, murine; conditions: for % of inhibition of NO2− accumulation at the highest concentration, N9 cells: LPS/IFN-γ, at the highest concentration (bound given in the source); for IC50: LPS (10 ng/mL)/IFN-γ (10 unit/mL), 24 hrs, read-out: IC50, accumulation of NO2− in culture media, N9 cells
Experimental: Cells of murine microglial cell line N9 (kindly provided by Dr. P. Ricciardi-Castagnoli, CNR Cellular and Molecular Pharmacology Center, Italy) (S. B. Corradin et al. (1993), Glia, 7, 255-262) were suspended in Iscove's Modified Dulbecco's medium containing 5% heat-inactivated FCS and antibiotics and then plated into 96-well tissue-culture plates at 8×10^4 cells/200 μL per well. The cells were treated with DMSO or a tested compound at 37° C. for 1 hr, followed by stimulation with LPS (10 ng/mL)/IFN-γ (10 unit/mL) for 24 hrs. Thereafter, the medium in each well was collected and stored at −70° C. until use. The final volume of DMSO in the reaction mixture was<0.5%
as §1

rat neutrophils [3] = assay: Superoxide anion generation in neutrophils stimulated with fMLP/CB or PMA (cytochrome c reduction); type: cell-based; conditions: for inhibition / IC50: Neutrophil; for inhibition / IC50 / % of inhibition of superoxide anion generation at the highest concentration, fMLP/CB: rat neutrophils; for inhibition / % of inhibition of superoxide anion generation at the highest concentration, fMLP/CB: at the highest concentration (bound given in the source)
Experimental: Superoxide anion generation was measured in terms of superoxide dismutase-inhibitable cytochrome c reduction (M. Market et al. (1984), Methods Enzymol., 105, 358). Neutrophil suspension was preincubated with DMSO or a tested compound for 3 min, and then superoxide dismutase or Hank's balanced salt solution (HBSS) was added into the blank and test wells, respectively. The final volume of DMSO in the reaction mixture was≦0.5%. After addition of cytochrome c, reaction was initiated by challenge with formyl-Met-Leu-Phe (fMLP) (0.3 μM)/cytochalasin B (CB) (5 μg/mL) or phorbol myristate acetate (PMA) (3 nM). Thirty minutes later, the reaction was terminated by centrifugation and the absorbance changes of supernatant were monitored at 550 nm in a microplate reader. In the experiment, Trifluoperazine was used as a positive control

rat neutrophils [4] = conditions: rat neutrophils stimulated with fMLP; concentration of 3 mg/mL; cited from earlier work
[5] = read-out: IC50, release of Lysozyme
[6] = read-out: IC50, release of β-Glucuronidase
[7] = read-out: IG50, release of Histamine
[8] = read-out: IG50, release of β-Glucuronidase
[9] = PMA (3 nM), read-out: IC50, superoxide anion generation, PMA
[10] = fMLP (0.3 μM)/CB (5 μg/mL), read-out: IC50, superoxide anion generation, fMLP/CB

Row | SMILES | melting point [°C] | % of inhibition of NO2− accumulation at the highest concentration, RAW 264.7 cells (RAW 264.7 cells) [%] | IC50 (RAW 264.7 cells; Mus musculus, RAW264.7) [µM] | IC50 (rat neutrophils [1]; [5]) [µM] | IC50 (rat neutrophils [1]; [6]) [µM] | IC50 [2, 7] [µM] | IC50 [2, 8] [µM] | % of inhibition of Histamine release at the highest concentration [2] [%] | % of inhibition of β-Glucuronidase release at the highest concentration [2] [%] | % of inhibition of NO2− accumulation at the highest concentration, N9 cells (N9 cells) [%] | IC50 (N9 cells; Mus musculus, N9) [µM] | inhibition (rat neutrophils [3]; PMA (3 nM)) [%] | IC50 (rat neutrophils [3]; [9]) [µM] | IC50 (rat neutrophils [3]; [10]) [µM] | other results
1 | COc1ccc(OC)c(C(=O)/C=C/c2ccc(Br)cc2)c1 [Compound 2, 4-Bromo-2′,5′-dimethoxychalcone] | 85 to 87 | 8.9 ± 4.0 | > 10 | 5.7 ± 0.3 | 5.6 ± 0.3 | > 30 | > 30 | 21.7 ± 1.5 | 28.6 ± 3.4 | −5.6 ± 1.1 | > 10 | 22.9 | > 30 | 8 ± 2.4 | 
2 | CC(C)=CCc1cc(C(=O)/C=C/c2ccc(O)c(O)c2)c(O)cc1O [Brousschalcone A] |  |  |  |  |  |  |  |  |  |  |  |  |  |  | % inhibition of release of lysozyme (rat neutrophils [4]): 68.0±13.4%; % inhibition of release of β-glucuronidase (rat neutrophils [4]): 51.1±12.6%
3 | CCN(CC)CCCC(C)Nc1c2ccc(Cl)cc2nc2ccc(OC)cc12 (stereo not drawn) [Mepacrine, reference compound] |  |  |  |  |  | 48.5 ± 3.8 | 32.2 ± 3.6 |  |  |  |  |  |  |  | 
4 | COc1ccc(OC)c(C(=O)/C=C/c2ccc(Cl)c(Cl)c2)c1 [Compound 3, 3,4Dichloro-2′,5′-dimethoxychalcone] | 121 to 123 | 2.0 ± 3.1 | > 3 | 5.1 ± 0.1 | 5 ± 0.3 | > 30 | > 30 | 35.2 ± 1.0 | 44.3 ± 2.3 | 4.3 ± 3.1 | > 3 | -27.1 | > 30 | 12.9 ± 0.4 | 
5 | O=C(/C=C/c1ccsc1)c1cc(O)ccc1O [Compound 7, 2′,5′-Dihydroxy-3-thienylchalcone] | 156 to 157 | 9.7 ± 2.9 | > 3 |  |  |  |  |  |  | 10.6 ± 8.2 | > 3 | 23.5 | > 1 | > 1 | % of inhibition of superoxide anion generation at the highest concentration, fMLP/CB (rat neutrophils [3]): 43.4 ± 6.1%
6 | O=C(/C=C/c1ccc(Cl)c(Cl)c1)c1cc(O)ccc1O [Compound 4, 3,4-Dichloro-2′,5′-dihydroxychalcone] | 171 to 174 | −4.9 ± 1.9 | > 1 |  |  |  |  |  |  | −10.3 ± 1.5 | > 1 | 21.9 | > 10 | 0.6 ± 0.2 | inhibitory effect on fMLP/CB-induced superoxide anion generation (in words) (rat neutrophils [3]): more potent than the positive control, trifluoperazine
7 | COc1ccc(OC)c(C(=O)/C=C/c2ccc(O)cc2)c1 [Compound 1, 2′,5′-Dimethoxy-4-hydroxychalcone] | 127 to 128 |  | 14.6 ± 0.1 | 28.3 ± 1.9 | 20.6 ± 2 | > 30 | > 30 | 10.0 ± 5.1 | 8.3 ± 2.3 |  | 17.8 ± 0.2 | 36.3 | > 30 | 19.5 ± 3.5 | suppression of LPS-induced NO production in RAW 264.7 cells (in words) (RAW 264.7 cells): suppressed
8 | COC(=O)[C@@H](N)CCCNC(=N)N[N+](=O)[O-] [L-NAME, N^ω-nitro-L-arginine methyl ether, reference compound] |  |  |  |  |  |  |  |  |  |  |  |  |  |  | IC50 (RAW 264.7 cells; positive control): 510 ± 20 µM; IC50 (N9 cells; positive control): 630 ± 10 µM
9 | CCOc1ccc(OCC)c(C(=O)/C=C/c2ccc(Cl)c(Cl)c2)c1 [Compound 5, 3,4-Dichloro-2′,5′-diethoxychalcone] | 152 to 153 |  | 4.9 ± 0.3 | > 30 | > 30 | > 30 | > 30 | 12.9 ± 7.9 | 5.5 ± 4.7 |  | 3.7 ± 0.1 | 13.2 | > 30 | > 30 | suppression of LPS-induced NO production in RAW 264.7 cells (in words) (RAW 264.7 cells): suppressed; inhibitory effect on neutrophil degranulation (in words) (rat neutrophils [1]; fMLP/CB): no significant inhibitory effects; % of inhibition of Lysozyme release at the highest concentration (rat neutrophils [1]; fMLP/CB): 27.1 ± 5.0%; % of inhibition of β-Glucuronidase release at the highest concentration (rat neutrophils [1]; fMLP/CB): 30.6 ± 4.1%; inhibitory effect on fMLP/CB-induced superoxide anion generation (in words) (rat neutrophils [3]): not to have significant inhibitory effects; % of inhibition of superoxide anion generation at the highest concentration, fMLP/CB (rat neutrophils [3]): 32.4 ± 12.2%
10 | CN1CCN(CCCN2c3ccccc3Sc3ccc(C(F)(F)F)cc32)CC1 [Trifluoperazine, reference compound] |  |  |  | 18.3 ± 0.9 | 18.9 ± 2.1 |  |  |  |  |  |  |  | 9.7 ± 1.1 | 12.9 ± 1 | 
11 | O=C(/C=C/c1cccs1)c1cccs1 [Compound 8, 2′,2-Dithienylchalcone] | 95 to 97 | 12.5 ± 2.2 | > 30 | > 30 | > 30 | > 30 | > 30 | 20.9 ± 1.2 | 17.3 ± 2.6 | 15.2 ± 0.5 | > 30 | 35.6 | > 30 | 24.3 ± 3.2 | % of inhibition of Lysozyme release at the highest concentration (rat neutrophils [1]; fMLP/CB): 30.0 ± 1.4%; % of inhibition of β-Glucuronidase release at the highest concentration (rat neutrophils [1]; fMLP/CB): 46.6 ± 0.7%
12 | CCCOc1ccc(O)c(C(=O)/C=C/c2ccc(Cl)c(Cl)c2)c1 [Compound 6, 3,4-Dichloro-2′-hydroxy-5′-propoxy-chalcone] | 97 to 99 | 7.5 ± 0.4 | > 10 | 6.6 ± 0.4 | 6.2 ± 0.3 | > 30 | > 30 | 47.6 ± 2.4 | 49.2 ± 2.0 | 26.4 ± 2.3 | > 30 | 49.9 | > 30 | 17.7 ± 7.2 | 
